Results on one compound are retold here after patent publication US20080070987A1, “META-XYLYLENEDIAMINE VANADATE SALTS” (priority 2006, published 2008).

One experiment deals with T1, Human SSAO/VAP-1 (Homo sapiens, UniProt Q16853).
T1 sequence (Q16853 1-763): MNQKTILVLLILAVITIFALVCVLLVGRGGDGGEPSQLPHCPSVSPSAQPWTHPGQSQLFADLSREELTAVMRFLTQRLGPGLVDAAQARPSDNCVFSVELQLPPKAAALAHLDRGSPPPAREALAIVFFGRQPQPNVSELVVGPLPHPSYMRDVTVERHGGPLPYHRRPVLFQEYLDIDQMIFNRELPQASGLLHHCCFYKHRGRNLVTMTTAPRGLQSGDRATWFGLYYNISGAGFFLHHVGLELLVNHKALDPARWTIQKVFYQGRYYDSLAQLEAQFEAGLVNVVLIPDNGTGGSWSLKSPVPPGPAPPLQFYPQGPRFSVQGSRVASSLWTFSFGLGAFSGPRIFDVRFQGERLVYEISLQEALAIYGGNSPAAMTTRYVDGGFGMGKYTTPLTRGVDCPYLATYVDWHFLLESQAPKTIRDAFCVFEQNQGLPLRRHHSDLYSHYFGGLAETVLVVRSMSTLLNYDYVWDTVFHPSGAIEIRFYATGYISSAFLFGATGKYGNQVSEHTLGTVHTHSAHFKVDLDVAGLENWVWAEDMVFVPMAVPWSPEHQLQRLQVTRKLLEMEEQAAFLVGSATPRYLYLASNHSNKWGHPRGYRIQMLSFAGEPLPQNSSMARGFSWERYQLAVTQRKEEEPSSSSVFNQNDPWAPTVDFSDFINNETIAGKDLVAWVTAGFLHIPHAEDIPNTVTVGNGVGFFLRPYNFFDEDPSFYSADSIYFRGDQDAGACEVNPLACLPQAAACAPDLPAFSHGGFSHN
Briefly: Fluorimetric detection of SSAO-mediated H2O2 formation (Amplex Red), human recombinant VAP-1. The note with it: production of hydrogen peroxide; compounds at 1 mM. Type of experiment: biochemical. On the procedure: (§1) The SSAO activity of human recombinant VAP-1 (0.1 μg prot/assay) and mouse adipose tissue membranes (1 μg prot/assay) was measured using Amplex Red Reagent, a highly sensitive and stable probe for H2O2. The reaction was performed in 200 μL of 0.2 mol/l phosphate buffer at pH 7.4 for 50 min at 37° C. in black non-phosphorescent microplates (Nunc). Catalytic reaction was initiated by the addition of the amines indicated as putative SSAO substrates and H2O2-detecting mixture containing horseradish peroxidase and Amplex Red, as previously described. Fluorescence intensity was measured (excitation, 545 nm, 590 nm, Bio-Tek fluorescence plate reader) and H2O2 concentration was calculated form calibration curves generated by serial dilutions of standard H2O2. Fluorescence readings were performed every 5 min. […] To test amines as putative SSAO inhibitors, they were pre-incubated for 20 min with semicarbazide, and their percentage of inhibition was calculated by referring to SSAO activity produced by benzylamine. The kinetic parameters Km and Vmax were calculated using appropriate non-linear curve-fitting formula based on the Michaelis-Menten equation and using GraphPad Prism 4.0 software.

In another experiment the target is T2, Mouse SSAO/VAP-1 (Mus musculus, UniProt O70423).
T2 construct: from tissue; host or cells: internal adipose tissue membranes of Swiss mice
T2 sequence (O70423 1-765): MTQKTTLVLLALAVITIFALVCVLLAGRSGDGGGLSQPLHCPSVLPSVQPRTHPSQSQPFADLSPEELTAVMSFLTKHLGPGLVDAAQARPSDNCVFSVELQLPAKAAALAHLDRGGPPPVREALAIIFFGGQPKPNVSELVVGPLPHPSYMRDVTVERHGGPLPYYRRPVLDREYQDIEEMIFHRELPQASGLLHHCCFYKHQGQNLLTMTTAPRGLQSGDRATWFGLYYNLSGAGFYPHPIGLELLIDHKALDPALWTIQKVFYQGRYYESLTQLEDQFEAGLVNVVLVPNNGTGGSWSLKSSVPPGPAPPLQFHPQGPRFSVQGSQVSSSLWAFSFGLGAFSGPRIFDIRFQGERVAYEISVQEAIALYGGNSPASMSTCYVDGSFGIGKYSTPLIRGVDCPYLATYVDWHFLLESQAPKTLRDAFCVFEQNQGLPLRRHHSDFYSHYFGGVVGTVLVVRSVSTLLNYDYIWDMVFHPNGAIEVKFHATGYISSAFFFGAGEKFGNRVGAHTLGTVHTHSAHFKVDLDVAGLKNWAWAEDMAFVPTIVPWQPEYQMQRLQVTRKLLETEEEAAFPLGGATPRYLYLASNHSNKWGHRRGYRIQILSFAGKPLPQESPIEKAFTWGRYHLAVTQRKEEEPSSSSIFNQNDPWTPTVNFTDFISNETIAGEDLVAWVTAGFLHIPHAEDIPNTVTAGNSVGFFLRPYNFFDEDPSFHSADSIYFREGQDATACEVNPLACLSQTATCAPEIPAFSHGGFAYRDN
The experiment in a line: Fluorimetric detection of SSAO-mediated H2O2 formation (Amplex Red), mouse adipose tissue membranes. Type of experiment: biochemical. The note with it: production of hydrogen peroxide; compounds at 100 μM. The method, then:
Internal adipose tissue was obtained from Swiss mice weighing between 20 to […]. […] The lysates were then centrifuged at 5000 g at 4° C. for 15 min to eliminate the fat cake and non-homogenized material, and supernatants were collected and centrifuged at 200000 g for 2 h at 4° C. Pelleted membranes were resuspended in 30 mmol/l HEPES and stored at −80° C. until use. Protein concentrations were measured by the Bradford method with γ-globulin as standard.
as §1

In the case of `CC(=O)NCc1cccc(CN)c1` [Example 2, N-(3-(aminomethyl)benzyl)acetamide], the “Human SSAO/VAP-1 activity % relative to benzylamine” value at Human SSAO/VAP-1 stood at 3 ± 1%. Besides, the “Mouse SSAO/VAP-1 activity % relative to benzylamine” value on Mouse SSAO/VAP-1 was found to be 16 ± 4%.
